compound: Cn1c(=O)n(-c2ccc(C(C)(C)C#N)cc2)c2c3cc(-c4cnc5ccccc5c4)ccc3ncc21 [Dactolisib] + C[C@]1(O)C[C@@H](c2nc(-c3ccc4ccc(-c5ccccc5)nc4c3)c3c(N)nccn32)C1 [Linsitinib] (partner 1 µM); experiment: relative viability (nuclei count vs DMSO), 5 days (fraction); higher = more cells survive; conditions: first compound 0.002 µM
Method in brief: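 Values are medians from duplicate plates. Each reflects relative viability, defined as the nuclei count of treated wells over that of vehicle wells. Lung cancer cell lines in 1536-well plates were pin-tool dosed one day after seeding with one drug alone or with a fixed anchor-drug dose plus five library-drug doses (not always all listed) in √10 steps, then fixed, stained and imaged at 4× after 5 days.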

| Cell Line | relative viability |
| --- | --- |
| EBC-1 | 0.974 |
| NCI-H1993 | 0.674 |
| SK-LU-1 | 1.26 |
| NCI-H838 | 0.915 |
| LCLC-103H | 1.06 |
| NCI-H520 | 1.02 |
| NCI-H2126 | 0.807 |
| EMC-BAC-2 | 0.872 |
| NCI-H2085 | 1.03 |
| Calu-6 | 0.875 |
| HCC-366 | 0.561 |
| NCI-H1666 | 0.939 |
| NCI-H596 | 1.18 |
| LK-2 | 0.389 |
| NCI-H2087 | 1.02 |
| SK-MES-1 | 1.1 |
| H3255 | 1.13 |
| COR-L23 | 1.01 |
| COR-L 105 | 1.17 |
| IA-LM | 0.681 |
| LOU-NH91 | 0.712 |
| NCI-H2405 | 0.936 |
| HOP-62 | 1.04 |
| HCC-44 | 0.707 |
| A549 | 0.578 |
| LU99A | 0.572 |
| HCC-78 | 0.476 |
| NCI-H1299 | 0.979 |
| NCI-H1563 | 1.25 |
| ABC-1 | 0.948 |

same assay, conditions: first compound 0.006325 µM

| Cell Line | relative viability |
| --- | --- |
| NCI-H727 | 0.317 |
| EBC-1 | 0.756 |
| NCI-H1703 | 0.637 |
| NCI-H1993 | 0.686 |
| SK-LU-1 | 0.988 |
| NCI-H838 | 0.444 |
| LCLC-103H | 1.07 |
| NCI-H520 | 0.731 |
| NCI-H2126 | 0.662 |
| EMC-BAC-2 | 0.806 |
| NCI-H2085 | 0.714 |
| Calu-6 | 0.939 |
| HCC-366 | 0.453 |
| NCI-H1666 | 0.865 |
| NCI-H596 | 0.935 |
| LK-2 | 0.508 |

| Cell Line | relative viability |
| --- | --- |
| NCI-H2087 | 0.955 |
| SK-MES-1 | 1.12 |
| H3255 | 0.919 |
| COR-L23 | 0.8 |
| COR-L 105 | 0.653 |
| IA-LM | 0.613 |
| LOU-NH91 | 0.888 |
| NCI-H2405 | 0.76 |
| HOP-62 | 0.626 |
| HCC-44 | 0.741 |
| A549 | 0.58 |
| LU99A | 0.468 |
| HCC-78 | 0.457 |
| NCI-H1299 | 0.929 |
| NCI-H1563 | 1.11 |
| ABC-1 | 0.614 |

same assay, conditions: first compound 0.02 µM

| Cell Line | relative viability |
| --- | --- |
| NCI-H727 | 0.266 |
| EBC-1 | 0.863 |
| NCI-H1703 | 0.891 |
| NCI-H1993 | 0.734 |
| SK-LU-1 | 0.728 |
| NCI-H838 | 0.652 |
| LCLC-103H | 0.934 |
| NCI-H520 | 0.53 |
| NCI-H2126 | 0.674 |
| EMC-BAC-2 | 0.798 |
| NCI-H2085 | 0.636 |
| Calu-6 | 0.898 |
| HCC-366 | 0.487 |
| NCI-H1666 | 0.776 |
| NCI-H596 | 0.924 |
| LK-2 | 0.507 |

| Cell Line | relative viability |
| --- | --- |
| NCI-H2087 | 0.919 |
| SK-MES-1 | 0.999 |
| H3255 | 0.967 |
| COR-L23 | 0.448 |
| COR-L 105 | 0.948 |
| IA-LM | 0.6 |
| LOU-NH91 | 0.837 |
| NCI-H2405 | 0.755 |
| HOP-62 | 0.873 |
| HCC-44 | 0.431 |
| A549 | 0.465 |
| LU99A | 0.307 |
| HCC-78 | 0.383 |
| NCI-H1299 | 1.01 |
| NCI-H1563 | 1.02 |
| ABC-1 | 0.694 |

same assay, conditions: first compound 0.06325 µM

| Cell Line | relative viability |
| --- | --- |
| NCI-H727 | 0.213 |
| EBC-1 | 0.202 |
| NCI-H1703 | 0.417 |
| NCI-H1993 | 0.645 |
| SK-LU-1 | 0.494 |
| NCI-H838 | 0.226 |
| LCLC-103H | 0.661 |
| NCI-H520 | 0.191 |
| NCI-H2126 | 0.521 |
| EMC-BAC-2 | 0.591 |
| NCI-H2085 | 0.361 |
| Calu-6 | 0.492 |
| HCC-366 | 0.185 |
| NCI-H1666 | 0.506 |
| NCI-H596 | 0.523 |
| LK-2 | 0.169 |

| Cell Line | relative viability |
| --- | --- |
| NCI-H2087 | 0.555 |
| SK-MES-1 | 0.953 |
| H3255 | 0.626 |
| COR-L23 | 0.17 |
| COR-L 105 | 0.362 |
| IA-LM | 0.124 |
| LOU-NH91 | 0.588 |
| NCI-H2405 | 0.323 |
| HOP-62 | 0.447 |
| HCC-44 | 0.315 |
| A549 | 0.194 |
| LU99A | 0.218 |
| HCC-78 | 0.223 |
| NCI-H1299 | 0.573 |
| NCI-H1563 | 0.62 |
| ABC-1 | 0.363 |

same assay, conditions: first compound 0.2 µM

| Cell Line | relative viability |
| --- | --- |
| NCI-H727 | 0.37 |
| EBC-1 | 0.177 |
| NCI-H1703 | 0.468 |
| NCI-H1993 | 0.73 |
| SK-LU-1 | 0.397 |
| NCI-H838 | 0.22 |
| LCLC-103H | 0.531 |
| NCI-H520 | 0.186 |
| NCI-H2126 | 0.422 |
| EMC-BAC-2 | 0.475 |
| NCI-H2085 | 0.381 |
| Calu-6 | 0.495 |
| HCC-366 | 0.0961 |
| NCI-H1666 | 0.42 |
| NCI-H596 | 0.387 |
| LK-2 | 0.251 |

| Cell Line | relative viability |
| --- | --- |
| NCI-H2087 | 0.429 |
| SK-MES-1 | 0.467 |
| H3255 | 0.416 |
| COR-L23 | 0.139 |
| COR-L 105 | 0.312 |
| IA-LM | 0.206 |
| LOU-NH91 | 0.527 |
| NCI-H2405 | 0.275 |
| HOP-62 | 0.342 |
| HCC-44 | 0.265 |
| A549 | 0.125 |
| LU99A | 0.223 |
| HCC-78 | 0.207 |
| NCI-H1299 | 0.608 |
| NCI-H1563 | 0.654 |
| ABC-1 | 0.326 |
